Results: PubChem BioAssay AID2384 (Southern Research Specialized Biocontainment Screening …, 2010)
pIC50: −log10 of the molar value.

These compounds were tested on S. typhi GFP reporter counter-screen, fluorescence, 4 h (assay: inhibitors in S. typhi counter-screen strain, dose response, counter-screen for PhoP regulon inhibitor project, fluorescence, 4 h (AID 2384)).

Question: How did the pIC50 turn out when `CN(C)CCCN(C(=O)c1ccc2c(c1)CCCC2)c1nc2ccc(Cl)cc2s1` was run?
Answer: Its pIC50 is 4.27.

Question: With `O=C(N/N=C/c1cc(Br)cc(Br)c1O)c1ccncc1` as the compound, how does the pIC50 read?
Answer: The pIC50 was 4.34.

Question: `Cc1[nH]c2ccc(C(=O)Nc3ccncc3)cc2c1C` was tested. Which pIC50 did it give?
Answer: The pIC50 was 4.04.

Question: How did the pIC50 turn out when `Cn1ncnc2c(=O)n(C)c(=O)nc1-2` was run?
Answer: Its pIC50 is 5.60.

Question: With `CCCCCCCCCCOC(=O)Cn1c(COc2ccc(Cl)cc2)[n+](C)c2ccccc21` as the compound, how does the pIC50 read?
Answer: Its pIC50 is 5.00.

Question: With `Clc1ccc(-c2cc(C3CCNCC3)[nH]n2)c(Cl)c1` as the compound, how does the pIC50 read?
Answer: Its pIC50 is 4.74.

Question: With `Cc1ccc2c(c1)sc(-c1ccc(N(C)C)cc1)[n+]2C` as the compound, how does the pIC50 read?
Answer: The pIC50 was 4.45.

Question: `CCc1ccc(Nc2n[n+](-c3ccccc3)c(-c3c(Cl)cccc3Cl)s2)cc1` was tested. Which pIC50 did it give?
Answer: The pIC50 was 4.38.

Question: `CN1CCN(Cc2cc(COCc3ccccc3)c3cccnc3c2O)CC1` was tested. Which pIC50 did it give?
Answer: The pIC50 was 4.43.

Question: `COc1ccc(/C=C/c2cc[n+](C(=O)Cc3ccccc3)cc2)cc1` was tested. Which pIC50 did it give?
Answer: Its pIC50 is 4.19.

Question: How did the pIC50 turn out when `CC[C@H]1OC(=O)[C@H](C)[C@@H](O[C@H]2C[C@@](C)(OC)[C@@H](O)[C@H](C)O2)[C@H](C)[C@@H](O[C@@H]2O[C@H](C)C[C@H](N(C)C)[C@H]2O)[C@](C)(OC)C[C@@H](C)C(=O)[C@H](C)[C@@H](O)[C@]1(C)O` was run?
Answer: The pIC50 was 4.53.

Question: `O=c1[nH]c(-c2ccccn2)nc(C(F)(F)F)c1Br` was tested. Which pIC50 did it give?
Answer: The pIC50 was 4.29.

Question: `Cc1cc(=O)[nH]c(-n2nc(C)cc2C)n1` was tested. Which pIC50 did it give?
Answer: The pIC50 was 4.16.

Question: With `CCOc1cccc(CNCCc2c(C)[nH]c3ccc(OC(F)(F)F)cc23)c1O` as the compound, how does the pIC50 read?
Answer: Its pIC50 is 4.51.

Question: How did the pIC50 turn out when `Cc1c(CN(C)C)c2c(n1Cc1ccccc1)C(=O)c1ccc(Br)cc1-2` was run?
Answer: The pIC50 was 4.33.

Question: `NS(=O)(=O)OCCCc1ccc(C(F)(F)F)cc1` was tested. Which pIC50 did it give?
Answer: Its pIC50 is 3.84.

Question: With `OCCN1CCN(C2CCC(c3ccc(F)cc3)c3ccc(F)cc32)CC1` (stereo not given) as the compound, how does the pIC50 read?
Answer: Its pIC50 is 4.80.

Question: With `CO/N=C(/C(=O)N[C@@H]1C(=O)N2C(C(=O)O)=CCS[C@H]12)c1cnc(N)s1` as the compound, how does the pIC50 read?
Answer: Its pIC50 is 4.57.

Question: `CC(C)(c1ccccc1)c1ccc(OCCCNCCO)cc1` was tested. Which pIC50 did it give?
Answer: The pIC50 was 4.54.

Question: `COc1ccc(CNCC(O)COc2ccc(C)cc2[N+](=O)[O-])cc1` (stereo not given) was tested. Which pIC50 did it give?
Answer: The pIC50 was 3.89.

Question: How did the pIC50 turn out when `O=C(CCN1CCN(c2ccccc2)CC1)c1ccc(Cl)cc1` was run?
Answer: Its pIC50 is 4.15.

Question: `O=C(N/N=C/c1c(O)ccc2ccccc12)c1ccc(CO)nc1` was tested. Which pIC50 did it give?
Answer: The pIC50 was 4.09.

Question: With `C#CCOCCOCCOCCNc1nc(N2CCN(C(=O)CCCCCCCCCCNC(=O)[C@H](CCCCN)n3cc(CCO)nn3)CC2)nc(N2CCN(C(=O)CCCCCCCCCCNC(=O)[C@H](CCCCN)n3cc(CCO)nn3)CC2)n1` as the compound, how does the pIC50 read?
Answer: The pIC50 was 4.44.

Question: With `C(=N\Nc1ccccn1)/c1cccnc1` as the compound, how does the pIC50 read?
Answer: Its pIC50 is 4.52.

Question: How did the pIC50 turn out when `O=C(CC(=O)c1ccccc1O)c1cccc(F)c1` was run?
Answer: Its pIC50 is 4.54.

Question: `Oc1ccc(C[C@@H]2CNCCN2CCC23CC4CC(CC(C4)C2)C3)cc1` was tested. Which pIC50 did it give?
Answer: Its pIC50 is 4.39.

Question: `CC[C@H](C)[C@@H](CN[C@H](C)CNC)NCCC(c1ccccc1)c1ccccc1` was tested. Which pIC50 did it give?
Answer: The pIC50 was 4.30.

Question: With `O=C(N/N=C/c1cccs1)c1ccc2nc[nH]c2c1` as the compound, how does the pIC50 read?
Answer: The pIC50 was 3.90.

Question: How did the pIC50 turn out when `C#CCOCCOCCOCCNc1nc(N2CCN(C(=O)[C@H](CCCCN)n3cc([C@@H](N)CO)nn3)CC2)nc(N2CCN(C(=O)[C@H](Cc3cc4ccccc4[nH]3)n3cc([C@@H](N)Cc4ccc(O)cc4)nn3)CC2)n1` was run?
Answer: The pIC50 was 4.03.

Question: How did the pIC50 turn out when `c1ccc(N2CCN(c3nc4ccccc4[nH]3)CC2)nc1` was run?
Answer: Its pIC50 is 3.86.

Question: How did the pIC50 turn out when `CC[C@@H](C)[C@H](CN[C@H](CNC)C(C)C)NC[C@@H](C)c1ccc(CC(C)C)cc1` was run?
Answer: The pIC50 was 4.58.

Question: `O=C(CCc1ccccc1)NNC(=O)c1ccccn1` was tested. Which pIC50 did it give?
Answer: The pIC50 was 4.24.

Question: With `O=C(Nc1ccncc1)Nc1ccc(Cl)cc1` as the compound, how does the pIC50 read?
Answer: The pIC50 was 4.07.

Question: With `c1ccc2c(c1)C(=NC1CCCCC1)NC2=NC1CCCCC1` as the compound, how does the pIC50 read?
Answer: Its pIC50 is 4.11.

Question: `CSc1ccc2c(c1)N(CCC1CCCCN1C)c1ccccc1S2` (stereo not given) was tested. Which pIC50 did it give?
Answer: Its pIC50 is 4.43.

Question: `O=[N+]([O-])c1ccc(O)c2ncccc12` was tested. Which pIC50 did it give?
Answer: Its pIC50 is 6.10.

Question: How did the pIC50 turn out when `C#CCOCCOCCOCCNc1nc(N2CCN(C(=O)[C@H](CCCCN)n3cc([C@@H](N)CC(C)C)nn3)CC2)nc(N2CCN(C(=O)[C@H](Cc3cc4ccccc4[nH]3)n3cc([C@@H](N)Cc4ccc(O)cc4)nn3)CC2)n1` was run?
Answer: Its pIC50 is 4.57.

Question: `c1ccc(CCN2CN(CCCN3CCOCC3)c3nc4ccccc4n3C2)cc1` was tested. Which pIC50 did it give?
Answer: The pIC50 was 3.89.

Question: How did the pIC50 turn out when `NC1CCN(c2nc3c(cc2F)c(=O)c(C(=O)O)cn3-c2ccc(F)cc2F)C1` (stereo not given) was run?
Answer: Its pIC50 is 5.82.

Question: With `O=C(CN1CCCC1)Nc1ccc(-c2nc3cc(NC(=O)CN4CCCC4)ccc3o2)cc1` as the compound, how does the pIC50 read?
Answer: The pIC50 was 4.24.
